Five molecules from ChEMBL document CHEMBL1150270, “Effect of the major glycosides of Harpagophytum procumbens (Devil's Claw) on epidermal cyclooxygenase-2 (COX-2) in vitro” (2008) can be followed below.

Holding throughout (type): functional
For experiment [1], the species on record is Sus scrofa. Put plainly: Reduction of COX2 expression in pig skin at 500 uM by Western blotting.
Experiment [2] is filed under the species Sus scrofa. Put plainly: Suppression of COX2 expression in pig skin by immunostaining after 6 hrs.
The species entered for experiment [3] is Sus scrofa. Put plainly: Inhibition of COX2 synthesis in pig skin.
For experiment [4], the species on record is Sus scrofa. Put plainly: Increase in COX2 expression in pig skin at 500 uM by Western blotting.

Active and inactive are the calls of the source. The rule behind the calls is not given here. Where only a bound is given, the exact number is not on record here.

As to `C[C@]1(OC(=O)/C=C/c2ccc(O)cc2)C[C@@H](O)[C@]2(O)C=CO[C@@H](O[C@@H]3O[C@H](CO)[C@@H](O)[C@H](O)[C@H]3O)[C@@H]21`, the result in experiment [1] and in experiment [2] was Active. For the same molecule, in experiment [3], the “inhibition (INH)” value is given as under 50%.

Consider `C[C@]1(O)C[C@@H](O)[C@]2(O)C=CO[C@@H](O[C@H]3O[C@H](CO)[C@@H](O)[C@H](O)[C@H]3O)[C@@H]21`, for which, in experiment [4], the outcome was Active.

Turning to `C[C@@H]1O[C@@H](O[C@@H]2[C@@H](O)[C@H](OCCc3ccc(O)c(O)c3)O[C@H](CO)[C@H]2OC(=O)/C=C/c2ccc(O)c(O)c2)[C@H](O)[C@H](O)[C@H]1O` [ACETOSIDE], the result in experiment [2] was Active. The “inhibition (INH)” value in experiment [3] is reported as under 50%.

For the molecule `C[C@]1(OC(=O)/C=C/c2ccccc2)C[C@@H](O)[C@]2(O)C=CO[C@@H](O[C@@H]3O[C@H](CO)[C@@H](O)[C@H](O)[C@H]3O)[C@@H]21` [HARPAGOSIDE], the outcome in experiment [2] was Active. Also, the “inhibition (INH)” value in experiment [3] is under 50%.

As to `CC(C)Cc1ccc(C(C)C(=O)O)cc1` (stereo not given) [IBUPROFEN], the outcome in experiment [2] was Active. The “inhibition (INH)” value in experiment [3] is listed as under 50%.
